Holding throughout (assay type): cell-based, human
In one assay the test system is TALL-104 cells. The assay can be described thus: Western blot analysis of TALL-104 immune cells. Here is the method:
Cells were plated in a 6-well plate and incubated overnight before the spent media was replaced with drugged media. Drug treatment lasted for indicated durations. Protein was extracted using radioimmunoprecipitation (RIPA) assay buffer (Cat #R0278, Sigma-Aldrich, St. Louis, MO) containing cOmplete™, Mini, EDTA-free Protease Inhibitor Cocktail (Cat #4693159001, Roche, Basel, Switzerland) from sub-confluent cells. Denaturing sample buffer was added, samples were boiled at 95 degrees for 10 minutes, and an equal amount of protein lysate was electrophoresed through NuPAGE™ 4 to 12%, Bis-Tris, 1.5 mm, Mini Protein Gels (Invitrogen, Waltham, MA) then transferred to PVDF membranes. The PVDF membrane was blocked with 5% non-fat milk (Sigma-Aldrich, St. Louis, MO) in 1×TTBS. Primary antibodies were incubated with the transferred PVDF membrane in blocking buffer at 4° C. overnight. Secondary antibodies used included Goat anti-Rabbit IgG (H+L) Secondary Antibody, HRP (Cat #31460, Invitrogen, Waltham, MA), and Goat anti-Mouse IgG (H+L) Secondary Antibody, HRP (Cat #31430, Invitrogen, Waltham, MA). Signal was detected using Pierce™ ECL Western Blotting Substrate (Cat #32106, Thermo Scientific, Waltham, MA, USA) and a Syngene Imaging System (RRID: SCR_015770).

A further assay concerns HT-29 GFP+ cells. In words: Single-color GFP+ immune cell co-culture, HT-29. As to conditions: 48 hours. Here is the method: 50,000 HT-29 or HCT 116 cells were seeded in a 12-well tissue culture plate and allowed to adhere overnight. They were then transduced with lentivirus containing the plasmid pLenti_CMV_GFP_Hygro [pLenti CMV GFP Hygro (656-4) was a gift from Eric Campeau & Paul Kaufman (Addgene viral prep #17446-LV; RRID: Addgene_17446)] at a multiplicity of infection of 10 with 8 μg/mL polybrene (hexadimethrine bromide [Cat #107689, Sigma Aldrich, St. Louis, MO, USA) for 24 hours before washing with PBS and replacing with fresh medium (49). The cells were then sorted for GFP-positivity using a BD FACSAria™ III Cell Sorter (RRID: SCR_016695).
5000 HT-29 GFP+ or HCT 116 GFP+ cells were plated per well in a clear-bottom, black-walled 96-well tissue culture plate and were allowed to adhere overnight. Cells were subsequently treated with DMSO, 5 μM elraglusib, and/or 5000 TALL-104 or NK-92 cells (for an effector-to-tumor ratio of 1:1) for 48 hours. Nine images were taken per well at 10× magnification using a Molecular Devices ImageXpress® Confocal HT.ai High-Content Imaging System and quantified for the number of GFP+ objects using the MetaXpress (RRID: SCR_016654) software (Molecular Devices, San Jose, CA, USA). 40× Images were also taken at 24 hours for representative images of cellular morphology changes. Statistical analysis was done using GraphPad Prism 9 (RRID: SCR_002798).

The next assay has as its system NK-92 cells. In words: Cytokine profiling of cell culture supernatant (Luminex 200), NK-92. Here is the method:
Cells were plated at 3.5×10^4 cells in a 48-well plate (Thermo Fisher Scientific, Waltham, MA, USA) in complete medium and incubated at 37° C. with 5% CO2. At 24 hours after plating, almost all the tumor cells were adherent to the bottom of the flask and the complete medium was replaced with the drug-containing medium. […] On the day of analysis, samples were thawed and centrifuged to remove cellular debris.
Human cell line culture supernatants were analyzed using an R&D systems Human Premixed Multi-Analyte Kit (R&D Systems, Inc., Minneapolis, MN, USA) and a Luminex 200 (RRID: SCR_018025) Instrument (LX200-XPON-RUO, Luminex Corporation, Austin, TX, USA) according to the manufacturer's instructions. Sample levels of TNF-α, 4-1BB/TNFRSF9/CD137, IL-8/CXCL8, Ferritin, IFN-β, IL-10, CCL2/JE/MCP-1, VEGF, CXCL13/BLC/BCA-1, IFN-γ, CCL20/MIP-3 α, CCL3/MIP-1 α, CCL22/MDC, CCL4/MIP-1 β, Fas Ligand/TNFSF6, IL-17/IL-17A, IL-2, BAFF/BLyS/TNFSF13B, GM-CSF, CXCL5/ENA-78, TRANCE/TNFSF11/RANK L, CXCL9/MIG, G-CSF, IFN-γ R1/CD119, VEGFR3/Flt-4, C-Reactive Protein/CRP, CXCL11/I-TAC, IL-21, CXCL14/BRAK, IL-6, Fas/TNFRSF6/CD95, TRAIL R3/TNFRSF10C, IL-4, CCL5/RANTES, PD-L1/B7-H1, CCL7/MCP-3/MARC, Chitinase 3-like 1, CXCL10/IP-10/CRG-2, IL-1 β/IL-1F2, IL-7, Prolactin, CCL8/MCP-2, TRAIL R2/TNFRSF10B, M-CSF, IL-15, Granzyme B, IFN-α, TREM-1, IL-12/IL-23 p40, TRAIL/TNFSF10, CCL11/Eotaxin, and IL-18/IL-1F4. Quantitative analysis with 6 standards and a minimum of 50 counts per bead region was used with the Luminex to generate analyte values reported as picograms/milliliter (pg/mL). Sample concentrations less than the lower limit of detection for each particular analyte were recoded as the lower limit value divided by ten. Sample concentrations above the upper limit of detection for a particular analyte were recoded as the upper limit of detection.

Setting [1] is: as treatment duration increased (0-72 hours).
The mark [2] stands for this setting: immune cell lysates, cell line not given, 0-72 hours.

Each structure is given as a SMILES string.

As to `Cn1cc(C2=C(c3coc4ccc(F)cc34)C(=O)NC2=O)c2cc3c(cc21)OCO3` [elraglusib, 3-(5-fluorobenzofuran-3-yl)-4-(5-methyl-5H-[1,3]dioxolo[4,5-f]indol-7-yl)-1H-pyrrole-2,5-dione], in the assay on TALL-104 cells (setting [1]), the NF-κB protein entry is “did not notice significant changes” and the “survival protein Bcl-2” value was “did not notice significant changes”. For the same compound, in the assay on TALL-104 cells (setting [2]), the “NF-κB-inducing kinase (NIK)” value is “increases” and the “survival protein Survivin” value is “increases”. Also, the tumor cell death entry in the assay on HT-29 GFP+ cells (5 μM elraglusib and NK-92 vs immune cell only and DMSO only) is listed as “increased tumor cell death”. Further, in the assay on HT-29 GFP+ cells (5 μM elraglusib and TALL-104 vs drug-only or T cell-only), the tumor cell death result was “increased tumor cell death”. Moreover, in the assay with NK-92 cells (1 μM, 48 hours), the “IFN-γ concentration in supernatant” value is reported as “increases”, the “TRAIL concentration in supernatant” value is listed as “increases” and the “secreted granzyme B concentration” value is recorded as “decreases”. Further, the “IFN-γ in cell culture supernatant” value in the assay with NK-92 cells (24 hours treatment vs DMSO) is “significant increase in IFN-γ”.

The record behind these values is patent US20260256741A1, “ANTICANCER MALEIMIDE DERIVATIVES FOR USE WITH IMMUNE CHECKPOINT BLOCKADE” (BROWN UNIVERSITY, priority 2022, published 2026).
